The target in assay [1] is T1, Adrenergic β2 (H292 cells) (Homo sapiens, UniProt P07550).
T1 construct: endogenous in cells; host or cells: H292 cells
Description: Adrenergic β2 Mediated cAMP Production, single concentration 1 μM. Format: cell-based. The following applies: percentage of the maximum response generated by 1E-07M formoterol; for β2 (% effect at 1 μM): 1 μM compound; for activation at 1 µM: NCI-H292, 1 μM compound, read-out: β2 (% effect at 1 μM). The gist of the method: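 cAMP was quantified by AlphaScreen in lysates of H292 cells and reported as a percentage of the 1E-07M formoterol maximum. Before lysis the cells, seeded the previous day, received rolipram (300 μM final) and then test compound at a final 1 μM in 1% DMSO for 60 min at room temperature.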

The target in assay [2] is T2, human muscarinic acetylcholine M3 receptor (M3-ACh) (Homo sapiens, UniProt P20309).
T2 construct: expressed in transfected cells; host or cells: CHO-K1 (Chinese Hamster Ovary) cell membranes
T2 sequence (P20309 whole entry): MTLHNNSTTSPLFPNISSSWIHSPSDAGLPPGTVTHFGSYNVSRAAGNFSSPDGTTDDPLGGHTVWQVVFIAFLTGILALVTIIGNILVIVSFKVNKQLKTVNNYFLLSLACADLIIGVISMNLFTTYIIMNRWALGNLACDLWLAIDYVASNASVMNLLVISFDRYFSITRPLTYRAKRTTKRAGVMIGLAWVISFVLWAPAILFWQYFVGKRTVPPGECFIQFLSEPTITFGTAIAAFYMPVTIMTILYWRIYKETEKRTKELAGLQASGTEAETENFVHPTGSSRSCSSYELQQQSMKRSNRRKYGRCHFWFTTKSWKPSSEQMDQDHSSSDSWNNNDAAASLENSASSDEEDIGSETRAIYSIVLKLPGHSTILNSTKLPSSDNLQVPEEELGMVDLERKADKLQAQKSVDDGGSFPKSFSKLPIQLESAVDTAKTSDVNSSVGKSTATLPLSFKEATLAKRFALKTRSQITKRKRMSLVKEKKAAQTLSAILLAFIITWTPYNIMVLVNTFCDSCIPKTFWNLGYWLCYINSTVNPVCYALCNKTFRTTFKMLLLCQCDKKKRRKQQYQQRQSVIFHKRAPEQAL
Description: Muscarinic 3 Receptor Binding Assay, % inhibition specific binding at 1 μM. The following applies: 1 μM compound, % inhibition specific [3H]-NMS binding. The gist of the method:
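Value is % inhibition of specific [3H]N-methyl scopolamine binding (0.1 nM, quarter Kd) by 1 μM compound, using SPA beads precoated with human M3-expressing CHO-K1 membranes. Buffer HEPES pH 7.4 with MgCl2 and 1% DMSO; 16 h at room temperature; 1 μM atropine sets non-specific binding.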

T1 sequence (P07550 whole entry): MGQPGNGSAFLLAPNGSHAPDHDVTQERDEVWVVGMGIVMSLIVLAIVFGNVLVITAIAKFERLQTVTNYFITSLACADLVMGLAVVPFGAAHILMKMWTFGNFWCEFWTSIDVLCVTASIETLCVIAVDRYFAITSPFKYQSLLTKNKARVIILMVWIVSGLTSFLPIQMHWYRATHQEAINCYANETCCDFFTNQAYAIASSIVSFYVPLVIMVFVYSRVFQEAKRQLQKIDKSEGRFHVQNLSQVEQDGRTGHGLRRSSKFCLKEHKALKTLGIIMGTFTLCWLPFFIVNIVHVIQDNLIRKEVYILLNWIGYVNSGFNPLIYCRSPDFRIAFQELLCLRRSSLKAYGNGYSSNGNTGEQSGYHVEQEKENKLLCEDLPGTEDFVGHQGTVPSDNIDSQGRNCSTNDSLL

Regarding `O=C(c1ccc(-c2ccccc2)cc1)N1CCOC2(CCN(Cc3cc(F)cc(CCNC[C@H](O)c4ccc(O)c5[nH]c(=O)sc45)c3)CC2)C1` [Example 171, (R)-7-(2-(3-((4-(biphenylcarbonyl)-1-oxa-4,9-diazaspiro[5.5]undecan-9-yl)methyl)-5-fluorophenethylamino)-1-hydroxyethyl)-4-hydroxybenzo[d]thiazol-2(3H)-one], the “β2 (% effect at 1 μM)” value in assay [1] is recorded as 86%. Besides, the “M3 (% inhibition at 1 μM)” value in assay [2] (1 µM) was 11%.
Turning to `CC(C)c1cc(C(=O)N2CCOC3(CCN(CCCCCCCCCNC[C@H](O)c4ccc(O)c5[nH]c(=O)sc45)CC3)C2)no1` [Example 214, (R)-4-hydroxy-7-(1-hydroxy-2-(9-(4-(5-isopropylisoxazole-3-carbonyl)-1-oxa-4,9-diazaspiro[5.5]undecan-9-yl)nonylamino)ethyl)benzo[d]thiazol-2(3H)-one], the activation at 1 µM in assay [1] turned out to be 82%. The same compound registered an inhibition at 1 µM in assay [2] of 91%.
The corresponding values for `O=C(CCOc1ccccc1)N1CCOC2(CCN(CCCCCCCCCNC[C@H](O)c3ccc(O)c4[nH]c(=O)sc34)CC2)C1` [Example 206, (R)-4-hydroxy-7-(1-hydroxy-2-(9-(4-(3-phenoxypropanoyl)-1-oxa-4,9-diazaspiro[5.5]undecan-9-yl)nonylamino)ethyl)benzo[d]thiazol-2(3H)-one] are 95% and 95%.
The corresponding values for `O=C(Cc1cccs1)N1CCOC2(CCN(CCOc3ccc(CNC[C@H](O)c4ccc(O)c5[nH]c(=O)sc45)cc3)CC2)C1` [Example 226, (R)-4-hydroxy-7-(1-hydroxy-2-(4-(2-(4-(2-(thiophen-2-yl)acetyl)-1-oxa-4,9-diazaspiro[5.5]undecan-9-yl)ethoxy)benzylamino)ethyl) benzo[d]thiazol-2(3H)-one] are 76% and 53%.
For `Cn1c(C(=O)N2CCOC3(CCN(Cc4cc(F)cc(CCNC[C@H](O)c5ccc(O)c6[nH]c(=O)sc56)c4)CC3)C2)cc2ccccc21` [Example 139, (R)-7-(2-(3-fluoro-5-((4-(1-methyl-1H-indole-2-carbonyl)-1-oxa-4,9-diazaspiro[5.5]undecan-9-yl)methyl)phenethylamino)-1-hydroxyethyl)-4-hydroxybenzo[d]thiazol-2(3H)-one] the same measures were 101% and 34%.
On to `Cc1cc(C(=O)N2CCOC3(CCN(Cc4cc(F)cc(CCNC[C@H](O)c5ccc(O)c6[nH]c(=O)sc56)c4)CC3)C2)c(C)s1` [Example 150, (R)-7-(2-(3-((4-(2,5-dimethylthiophene-3-carbonyl)-1-oxa-4,9-diazaspiro[5.5]undecan-9-yl)methyl)-5-fluorophenethylamino)-1-hydroxyethyl)-4-hydroxybenzo[d]thiazol-2(3H)-one], for which the activation at 1 µM in assay [1] is 100%. The compound also displayed an inhibition at 1 µM in assay [2] of 91%.
As to `O=C(c1ccc2ncsc2c1)N1CCOC2(CCN(Cc3cc(F)cc(CCNC[C@H](O)c4ccc(O)c5[nH]c(=O)sc45)c3)CC2)C1` [Example 132, (R)-7-(2-(3-((4-(benzo[d]thiazole-6-carbonyl)-1-oxa-4,9-diazaspiro[5.5]undecan-9-yl)methyl)-5-fluorophenethylamino)-1-hydroxyethyl)-4-hydroxybenzo[d]thiazol-2(3H)-one], the activation at 1 µM in assay [1] is 92%. In assay [2], this compound displayed an inhibition at 1 µM of 85%.
For `CC(C)(C)c1nc(C(=O)N2CCOC3(CCN(CCOc4ccc(CNC[C@H](O)c5ccc(O)c6[nH]c(=O)sc56)cc4)CC3)C2)cs1` [Example 257, (R)-7-(2-(4-(2-(4-(2-tert-butylthiazole-4-carbonyl)-1-oxa-4,9-diazaspiro[5.5]undecan-9-yl)ethoxy)benzylamino)-1-hydroxyethyl)-4-hydroxy-benzo[d]thiazol-2(3H)-one] the same measures were 56% and 36%.
The corresponding values for `Cc1nc(CC(=O)N2CCOC3(CCN(Cc4cc(F)cc(CCNC[C@H](O)c5ccc(O)c6[nH]c(=O)sc56)c4)CC3)C2)cs1` [Example 166, (R)-7-(2-(3-fluoro-5-((4-(2-(2-methylthiazol-4-yl)acetyl)-1-oxa-4,9-diazaspiro[5.5]undecan-9-yl)methyl)phenethylamino)-1-hydroxyethyl)-4-hydroxybenzo[d]thiazol-2(3H)-one] are 95% and 69%.
On to `O=C(c1csc(C(F)(F)F)n1)N1CCOC2(CCN(CCOc3ccc(CNC[C@H](O)c4ccc(O)c5[nH]c(=O)sc45)cc3)CC2)C1` [Example 258], for which the “β2 (% effect at 1 μM)” value in assay [1] is 55%. In addition, the “M3 (% inhibition at 1 μM)” value in assay [2] was 96%.
On to `Cc1cc(C(=O)N2CCOC3(CCN(Cc4cc(F)cc(CCNC[C@H](O)c5ccc(O)c6[nH]c(=O)sc56)c4)CC3)C2)oc1C` [Example 180, (R)-7-(2-(3-((4-(4,5-dimethylfuran-2-carbonyl)-1-oxa-4,9-diazaspiro[5.5]undecan-9-yl)methyl)-5-fluorophenethylamino)-1-hydroxyethyl)-4-hydroxybenzo[d]thiazol-2(3H)-one], for which the activation at 1 µM in assay [1] is 92%. In assay [2], this compound yielded an inhibition at 1 µM of 51%.
As to `O=C(COCc1ccccc1)N1CCOC2(CCN(CCOc3ccc(CNC[C@H](O)c4ccc(O)c5[nH]c(=O)sc45)cc3)CC2)C1` [Example 244, (R)-7-(2-(4-(2-(4-(2-(benzyloxy)acetyl)-1-oxa-4,9-diazaspiro[5.5]undecan-9-yl)ethoxy)benzylamino)-1-hydroxyethyl)-4-hydroxy-benzo[d]thiazol-2(3H)-one], the activation at 1 µM in assay [1] was found to be 60%. In addition, in assay [2], the inhibition at 1 µM was 48%.
The corresponding values for `O=C(c1cccc2[nH]ccc12)N1CCOC2(CCN(Cc3cc(F)cc(CCNC[C@H](O)c4ccc(O)c5[nH]c(=O)sc45)c3)CC2)C1` [Example 165, (R)-7-(2-(3-((4-(1H-indole-4-carbonyl)-1-oxa-4,9-diazaspiro[5.5]undecan-9-yl)methyl)-5-fluorophenethylamino)-1-hydroxyethyl)-4-hydroxybenzo[d]thiazol-2(3H)-one] are 89% and 11%.
The corresponding values for `Cc1ccoc1C(=O)N1CCOC2(CCN(CCOc3ccc(CNC[C@H](O)c4ccc(O)c5[nH]c(=O)sc45)cc3)CC2)C1` [Example 234, (R)-4-hydroxy-7-(1-hydroxy-2-(4-(2-(4-(3-methylfuran-2-carbonyl)-1-oxa-4,9-diazaspiro[5.5]undecan-9-yl)ethoxy)benzylamino)ethyl) benzo[d]thiazol-2(3H)-one] are 78% and 80%.
The corresponding values for `CC(C)(C)c1nc(C(=O)N2CCOC3(CCN(CCCCCCCCCNC[C@H](O)c4ccc(O)c5[nH]c(=O)sc45)CC3)C2)cs1` [Example 216, (R)-7-(2-(9-(4-(2-tert-butylthiazole-4-carbonyl)-1-oxa-4,9-diazaspiro[5.5]undecan-9-yl)nonylamino)-1-hydroxyethyl)-4-hydroxybenzo[d]thiazol-2(3H)-one] are 88% and 90%.
For `O=C(Cc1ccc(-c2ccccc2)cc1)N1CCOC2(CCN(Cc3cc(F)cc(CCNC[C@H](O)c4ccc(O)c5[nH]c(=O)sc45)c3)CC2)C1` [Example 123, (R)-7-(2-(3-((4-(2-(biphenyl-4-yl)acetyl)-1-oxa-4,9-diazaspiro[5.5]undecan-9-yl)methyl)-5-fluorophenethylamino)-1-hydroxyethyl)-4-hydroxybenzo[d]thiazol-2(3H)-one], in assay [1], the activation at 1 µM was found to be 97%. In assay [2], this compound came in with an inhibition at 1 µM of 62%.
For `O=C(c1[nH]nc2c1CCCC2)N1CCOC2(CCN(Cc3cc(F)cc(CCNC[C@H](O)c4ccc(O)c5[nH]c(=O)sc45)c3)CC2)C1` [Example 146, (R)-7-(2-(3-fluoro-5-((4-(4,5,6,7-tetrahydro-2H-indazole-3-carbonyl)-1-oxa-4,9-diazaspiro[5.5]undecan-9-yl)methyl)phenethylamino)-1-hydroxyethyl)-4-hydroxybenzo[d]thiazol-2(3H)-one] the same measures were 96% and 41%.
For `O=C(N1CCOC2(CCN(Cc3cc(F)cc(CCNC[C@H](O)c4ccc(O)c5[nH]c(=O)sc45)c3)CC2)C1)C1(c2ccccc2)CCCC1` [Example 129, (R)-7-(2-(3-fluoro-5-((4-(1-phenylcyclopentanecarbonyl)-1-oxa-4,9-diazaspiro[5.5]undecan-9-yl)methyl)phenethylamino)-1-hydroxyethyl)-4-hydroxybenzo[d]thiazol-2(3H)-one] the same measures were 90% and 20%.
For `Cc1ccc(C(=O)N2CCOC3(CCN(CCOc4ccc(CNC[C@H](O)c5ccc(O)c6[nH]c(=O)sc56)cc4)CC3)C2)o1` [Example 239, (R)-4-hydroxy-7-(1-hydroxy-2-(4-(2-(4-(5-methylfuran-2-carbonyl)-1-oxa-4,9-diazaspiro[5.5]undecan-9-yl)ethoxy)benzylamino)ethyl) benzo[d]thiazol-2(3H)-one] the same measures were 76% and 90%.
Regarding `Cc1nc(C(=O)N2CCOC3(CCN(CCOc4ccc(CNC[C@H](O)c5ccc(O)c6[nH]c(=O)sc56)cc4)CC3)C2)c(C)s1` [Example 242, (R)-7-(2-(4-(2-(4-(2,5-dimethylthiazole-4-carbonyl)-1-oxa-4,9-diazaspiro[5.5]undecan-9-yl)ethoxy)benzylamino)-1-hydroxyethyl)-4-hydroxy-benzo[d]thiazol-2(3H)-one], in assay [1], the activation at 1 µM is 43%. In assay [2], the inhibition at 1 µM stood at 83%.

The term inhibition denotes the change of the read-out against control, counted positive when it falls. Low values mean a response near the control, high ones a response far below the control.

Source of the values: patent US8148373B2, “Compounds” (AstraZeneca AB, priority 2008, dated 2012).
